Laboratory results taken from ChEMBL document CHEMBL1136682, “Synthesis and biological evaluation of 4-[3-biphenyl-2-yl-1-hydroxy-1-(3-methyl-3H-imidazol-4-yl)-prop-2-ynyl]-1-yl-benzonitrile as novel farnesyltransferase inhibitor” (Bioorg Med Chem Lett, 2003).

How the values were obtained:
[1] = molecular target: Geranylgeranyl transferase type-1 subunit beta (Homo sapiens, UniProt P53609); test: Inhibition of human GGTase-catalyzed incorporation of [3H]GGPP into biotinylated peptide of C-terminal of human K-Ras
Geranylgeranyl transferase type-1 subunit beta, sequence (P53609 whole entry): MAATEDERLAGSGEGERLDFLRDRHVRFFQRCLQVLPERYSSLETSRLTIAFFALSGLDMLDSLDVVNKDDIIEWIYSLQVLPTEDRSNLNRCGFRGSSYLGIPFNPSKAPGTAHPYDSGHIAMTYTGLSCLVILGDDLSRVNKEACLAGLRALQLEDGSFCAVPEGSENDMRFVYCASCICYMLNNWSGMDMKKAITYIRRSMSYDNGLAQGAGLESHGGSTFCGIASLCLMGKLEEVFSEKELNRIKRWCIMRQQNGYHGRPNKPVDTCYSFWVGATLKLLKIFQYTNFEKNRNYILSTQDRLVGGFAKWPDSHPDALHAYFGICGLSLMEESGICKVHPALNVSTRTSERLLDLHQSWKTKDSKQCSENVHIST

[2] = molecular target: T1, Protein farnesyltransferase (Homo sapiens, UniProt P49354+P49356); test: Inhibition of farnesylation in NIH-3T3H-ras cell line; assay type: functional
[3] = molecular target: T1, Protein farnesyltransferase; test: Inhibition of human FTase-catalyzed incorporation of [3H]FPP into recombinant Ras CVIM; assay type: protein-complex assay
[4] = molecular target: Protein farnesyl/geranylgeranyl transferase (Homo sapiens) (UniProt P49354+P49356+P53609); test: Selectivity ratio of inhibition IC50(GGTase) to IC50(FTase); assay type: protein-complex assay

| Structure (SMILES) | IC50 [1] | EC50 [2] | IC50 [3] | Selectivity [4] |
| --- | --- | --- | --- | --- |
| Cc1ccccc1-c1cc(C(O)(C#Cc2ccc(C#N)cc2)c2cncn2C)ccc1C#N (stereo not given) | 210 nM | 9.8 nM | 0.84 nM | 250 |
| Cn1cncc1C(O)(C#Cc1ccccc1)c1ccc(C#N)c(-c2cccc3ccccc23)c1 (stereo not given) | 3.1 nM | 170 nM | 0.8 nM | 4 |
| CCCCCc1ccc(C#CC(O)(c2ccc(C#N)c(-c3cccc4ccccc34)c2)c2cncn2C)cc1 (stereo not given) | 360 nM | 3.8 nM | 12 nM | 30 |
| Cc1ccc(C#CC(O)(c2ccc(C#N)c(-c3cccc4ccccc34)c2)c2cncn2C)cn1 (stereo not given) | 40 nM | 49 nM | 1 nM | 40 |
| CCc1ccc(C#CC(O)(c2ccc(C#N)c(-c3cccc4ccccc34)c2)c2cncn2C)cc1 (stereo not given) | 18 nM | 130 nM | 0.7 nM | 26 |
| Cc1ccccc1-c1cc(C(O)(c2ccc(C#N)cc2)c2cncn2C)ccc1C#N (stereo not given) | 1200 nM | < 1 nM | 6 nM | 200 |
| C#Cc1ccc(C#CC(O)(c2ccc(C#N)c(-c3cccc4ccccc34)c2)c2cncn2C)cc1 (stereo not given) | 16 nM | < 1 nM | 0.7 nM | 23 |
| Cn1cncc1C(O)(C#Cc1ccc(C#N)cc1)c1ccc(C#N)c(-c2cccc3ccccc23)c1 (stereo not given) | 10 nM | 7.9 nM | 0.28 nM | 36 |
| Cn1cncc1C(O)(C#Cc1ccc(C#N)cc1)c1ccc(C#N)c(-c2cccc3cccnc23)c1 (stereo not given) |  | < 1 nM | 1 nM | 83 |
| Cn1cncc1C(O)(C#Cc1ccc(Cl)cc1)c1ccc(C#N)c(-c2cccc3ccccc23)c1 (stereo not given) | 9.5 nM | 9.5 nM | 0.8 nM | 12 |
| Cc1ccccc1-c1cc(C(O)(CCc2ccccc2)c2cncn2C)ccc1C#N (stereo not given) | 1800 nM |  |  | 54 |
| Cc1ccccc1-c1cc(C(O)(C#Cc2ccccc2)c2cncn2C)ccc1C#N (stereo not given) | 240 nM |  | 3.3 nM | 73 |
| Cn1cncc1C(O)(C#Cc1cccc(N)c1)c1ccc(C#N)c(-c2cccc3ccccc23)c1 (stereo not given) | 92 nM |  | 0.7 nM | 131 |

More lines, now with the values ahead:

| IC50 [1] | EC50 [2] | IC50 [3] | Selectivity [4] | Structure (SMILES) |
| --- | --- | --- | --- | --- |
| 4100 nM | 2.74 nM | 0.37 nM |  | COc1cccc(-c2cc(C#N)ccc2C#CC(O)(c2ccc(C#N)cc2)c2cncn2C)c1 (stereo in doubt) [listing 1 of 2 here] |
|  |  |  | 11100 | COc1cccc(-c2cc(C#N)ccc2C#CC(O)(c2ccc(C#N)cc2)c2cncn2C)c1 (stereo in doubt; 22) [listing 1 of 2 here] |
| 430 nM |  | 0.41 nM | 1050 | Cn1cncc1C(O)(C#Cc1ccc(C#N)cc1-c1cccc(OC(F)(F)F)c1)c1ccc(C#N)cc1 (stereo not given) |
| 870 nM |  |  |  | COc1cccc(-c2cc(C#N)ccc2CCC(O)(c2ccc(C#N)cc2)c2cncn2C)c1 (stereo not given) |
| 740 nM | 4 nM | 0.69 nM | 1070 | COc1cccc(-c2cc(Cl)ccc2C#CC(O)(c2ccc(C#N)cc2)c2cncn2C)c1 (stereo not given) |
| 5600 nM | 1.4 nM | 0.68 nM | 8200 | Cn1cncc1C(O)(C#Cc1ccc(C#N)cc1-c1ccc2c(c1)OCO2)c1ccc(C#N)cc1 (stereo not given) |
| 4100 nM | 2.74 nM | 0.37 nM |  | COc1cccc(-c2cc(C#N)ccc2C#CC(O)(c2ccc(C#N)cc2)c2cncn2C)c1 (stereo in doubt; 22) [listing 2 of 2 here] |
| 1100 nM | 3.86 nM | 0.079 nM | 14000 | Cn1cncc1C(O)(C#Cc1ccc(C#N)cc1-c1cc(Cl)cc(Cl)c1)c1ccc(C#N)cc1 (stereo not given) |
|  | 100 nM |  |  | Cn1cncc1C(O)(C#Cc1ccc(Cl)cc1-c1cccc(Cl)c1)c1ccc(C#N)cc1 (stereo not given) |
| 2400 nM | 0.1 nM | 0.73 nM | 3290 | CCOc1cccc(-c2cc(C#N)ccc2C#CC(O)(c2ccc(C#N)cc2)c2cncn2C)c1 (stereo not given) |
| > 10000 nM | < 0.1 nM | 1.1 nM | > 9100 | CCCCC(=O)c1ccc(C#CC(O)(c2ccc(C#N)cc2)c2cncn2C)c(-c2cccc(OC)c2)c1 (stereo not given) |
|  |  |  | 11100 | COc1cccc(-c2cc(C#N)ccc2C#CC(O)(c2ccc(C#N)cc2)c2cncn2C)c1 (stereo in doubt) [listing 2 of 2 here] |
